For two compounds, EC50 and IC50 results are on record in patent US10201527B2, “Benzimidazole derivatives: preparation and pharmaceutical applications” (MEI PHARMA, INC., priority 2003, dated 2019).

By IC50 is commonly meant the midpoint of a concentration-inhibition curve. Lower therefore signals higher potency.

For assay [1], the system named is acetylated histone 3 [AcH3(lys9/14)] in Colo205 cells. Put plainly: Histone H3 acetylation assay, ELISA approach. The assay is classed as cell-based. The following applies: Homo sapiens, COLO 205, read-out: EC50, concentration effective for induction of acetylation of histone 3 ([AcH3(lys9/14)]) signal by 50%, 24 h treatment. In general terms: ELISA stands for enzyme-linked immunosorbent assay.
Procedure: Histone H3 Acetylation Assay—ELISA Approach
An Enzyme Linked Immunosorbent Assay (ELISA) can be applied to detect and quantify the acetylated histone3 (AcH3) in the protein lysate obtained from cancer cell lines treated with the HDAC inhibitors.
The ELISA assay was developed to detect the level of AcH3 from the Colo205 colon cancer cell line treated with 10 μM HDAC inhibitory compounds. The protein lysates from untreated and treated Colo205 were obtained as previously described. The concentration of protein from lysed cells was determined using the BCA method (Sigma-Aldrich Pte Ltd).
The detection antibody used in this ELISA was donkey anti rabbit conjugated with peroxidase.
Colo205 cells were subsequently treated with HDAC inhibitors at different doses (in duplicates, 9 doses treatment, 4-fold dilutions from 100 μM). After treatment for 24 h, cells were lysed and the protein concentration was determined.
The ELISA plate (immulon 2HB plate, Biolaboratories Pte Ltd) was coated with 4 μg/ml of mouse monoclonal antibody against H3 at 4° C. overnight. […] The absorbance was measured at OD450 nm using Spectromax reader (Molecular Devices Corporation, Sunnyvale, Calif.).
The standard curve was drawn and the concentration of AcH3 [(Lys9/14), μg/ml] in a sample was determined using the Softmax software in Spectromax. The amount of AcH3 in a sample was calculated based on the following formula; […]

The next assay addresses HDAC3 (Homo sapiens (Human), UniProt O15379). Briefly: In vitro HDAC assay, HDAC3. Type of assay: biochemical. To be noted: Free base. The protocol:
In Vitro HDAC Assay for Determination of IC50 Values
The assay has been carried out in 96 well format and the BIOMOL fluorescent-based HDAC activity assay has been applied. […] Flur de lys Developer was added and the reaction was incubated for 10 min. Briefly, deacetylation of the substrate sensitizes it to the developer, which then generates a fluorophore (symbol). The fluorophore is excited with 360 nm light and the emitted light (460 nm) is detected on a fluorometric plate reader (Tecan Ultra Microplate detection system, Tecan Group Ltd.).
The analytical software, Prism 3.0 has been used to generate IC50 from a series of data.

HDAC3, sequence (O15379 whole entry): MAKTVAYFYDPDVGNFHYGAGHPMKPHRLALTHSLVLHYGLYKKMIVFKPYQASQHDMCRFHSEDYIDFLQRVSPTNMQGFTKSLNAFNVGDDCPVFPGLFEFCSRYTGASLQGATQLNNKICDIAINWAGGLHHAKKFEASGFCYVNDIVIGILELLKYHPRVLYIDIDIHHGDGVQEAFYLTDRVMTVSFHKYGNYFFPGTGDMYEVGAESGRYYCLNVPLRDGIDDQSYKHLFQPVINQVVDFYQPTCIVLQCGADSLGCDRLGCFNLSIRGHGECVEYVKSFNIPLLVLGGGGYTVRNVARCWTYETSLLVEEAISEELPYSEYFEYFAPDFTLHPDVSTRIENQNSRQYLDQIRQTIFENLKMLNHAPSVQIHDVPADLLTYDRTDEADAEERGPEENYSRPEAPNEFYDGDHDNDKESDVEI

Regarding `CN(C)CC(C)(C)Cn1c(CCc2ccccc2)nc2cc(/C=C/C(=O)NO)ccc21` [Compound 17, N-Hydroxy-3-[1-(3-Dimethylamino-2,2-dimethyl-proppyl)-2-phenethyl-1H-benzimidazol-5-yl]-acrylamide], in assay [1], the EC50 is 1100 nM. For the same compound, inhibition on HDAC3 was half-maximal at 29 nM (IC50).
On the same counts, the results for `COc1cc(Cn2c(CCc3ccccc3)nc3cc(/C=C/C(=O)NO)ccc32)cc(OC)c1OC` [Compound 2, N-Hydroxy-3-[1-(3,4,5-trimethoxybenzyl)-2-(2-phenyl-ethyl)-1H-benzimidazol-5-yl]-acrylamide] are 1700 nM and 64 nM.
